Experimental data as given in patent US4552882A, “7-(1-Pyrrolyl) derivatives of 1-ethyl-1,4-dihydro-4-oxoquinoline-3-carboxylic acids and 1-ethyl-1,4-dihydro-4-oxo-1,8-naphthyridine-3-carboxylic acids and their use as antimicrobial agents” (Provesan, SA, priority 1983, dated 1985).
Values after ≈ are worked out from the molar mass of the structure shown.

What was measured:
Assay in all cases: MIC in vitro
Assay type in all cases: cell-based
[1] = tested on: Pseudomonas aeruginosa ATCC 25115; details: ATCC25115, Dextrose agar, 37° C., 20 hours
From the text: (§1) (G. L. Daquet and Y. A. Chabbect, Techniques en bacteriologie (Bacteriological techniques), vol. 3, Flammarion Medecine Sciences, Paris, 1972 and W. B. Hugo and A. D. Rusell, Pharmaceutical Microbiology, Blackwell Scientific Publications, London, (1977)). Antibiotic medium no. 1 (seed agar) (Oxoid CM 327) Tryptone-soya broth (Oxoid CM 129) Ringer's physiological solution 1/4 (oxoid BR 52) Dextrose agar (BBL-11165) 0.1 N NaOH "Pseudomonas aeruginosa" ATCC 25115 Each of the microorganisms is seeded by streaking in tubes of Antibiotic medium No. 1 (seed agar), which are then incubated at 37° C. for 20 hours. Using a culture loop, the cultures are then seeded in tryptone-soyabroth and incubated at 37° C. for 20 hours. The culture obtained is diluted to 1/4 with Ringer's physiological solution, so as to obtain a standardized suspension of 10^7 -10^9 cfu/ml for each organism. Starting from a solution of 1,000 μg/ml in 0.1 N NaOH, each product is diluted in Dextrose agar (previously melted and maintained at 50° C.), with successive dilutions so as to obtain the following concentrations: 64--32--16--8--4--2--1--0.5--0.25--0.125 μg of derivative/ml medium. For each product, the solution of each concentration is subsequently distributed into Petri dishes 10 cm in diameter, with 10 ml of medium per dish and the same number of dishes as microorganisms to be tested. As soon as the medium has cooled, the dishes are seeded with the inoculations using 0.4 ml of inoculation per dish. They are spread with a Driglasky loop and the supernatant is removed. The seeded dishes are incubated at 37° C. for 20 hours.

[2] = tested on: Klebsiella pneumoniae ATCC 10031; details: ATCC10031, Dextrose agar, 37° C., 20 hours
Experimental: as §1, with “"Klebsiella pneumoniae"” for “"Pseudomonas aeruginosa"”, “10031” for “25115”

[3] = tested on: Staphylococcus aureus ATCC 25178; details: ATCC25178, Dextrose agar, 37° C., 20 hours
Experimental: as §1, with “"Staphylococcus aureus"” for “"Pseudomonas aeruginosa"”, “25178” for “25115”

| SMILES | MIC [1] [µg/mL] | MIC [2] [µg/mL] | MIC [3] [µg/mL] |
| --- | --- | --- | --- |
| CCn1cc(C(=O)O)c(=O)c2ccc(-n3cccc3)cc21 [Example 1, 7-(1-pyrrolyl)-1-ethyl-1,4-dihydro-4-oxo-3-quinolinecarboxylic acid] | > 64 | 1 (≈ 3.54 µM) | 1 (≈ 3.54 µM) |
| CCn1cc(C(=O)O)c(=O)c2cc(F)c(-n3cccc3)nc21 [Example 4, 1-ethyl-1,4-dihydro-4-oxo-6-fluoro-7-(1-pyrrolyl)-1,8-naphthyridine-3-carboxylic acid] | 32 (≈ 106 µM) | 1 (≈ 3.32 µM) | 0.5 (≈ 1.66 µM) |
| CCn1cc(C(=O)O)c(=O)c2cc(F)c(-n3cccc3)cc21 [Example 2, 6-fluoro-7-(1-pyrrolyl)-1-ethyl-1,4-dihydro-4-oxo-3-quinolinecarboxylic acid] | 16 (≈ 53.3 µM) | 0.5 (≈ 1.67 µM) | 0.25 (≈ 0.833 µM) |
| CCn1cc(C(=O)O)c(=O)c2ccc(-n3cccc3)nc21 [Example 3, 1-ethyl-1,4-dihydro-4-oxo-7-(1-pyrrolyl)-1,8-naphthyridine-3-carboxylic acid] | > 64 | 4 (≈ 14.1 µM) | 4 (≈ 14.1 µM) |
| CCn1cc(C(=O)O)c(=O)c2cnc(N3CCNCC3)nc21 [Pipemidic acid, reference compound] | 32 (≈ 105 µM) | 2 (≈ 6.59 µM) | 64 (≈ 211 µM) |
